We go through seven molecules from US3983105A, “Penicillins” (Bayer Aktiengesellschaft, priority 1971, dated 1976).

Molecules are shown by their SMILES.

Type in all cases: cell-based
One test deals with Staphylococcus aureus. Nature of the test: MIC, test tube serial dilution, Staphylococcus aureus. The note with it: strain 1756 (BRL 1 756); 24 hours, 37°C.
The subject of a further test is Pseudomonas aeruginosa. Kind of test: MIC, test tube serial dilution, Pseudomonas aeruginosa.
For a further test, the system named is Escherichia coli. Kind of test: MIC, test tube serial dilution, Escherichia coli. The note with it: 24 hours, 37°C.
The next test has as its system Klebsiella-Aerobacter. Kind of test: MIC, test tube serial dilution, Klebsiella-Aerobacter.
A further test has as its system Streptococcus faecalis. Kind of test: MIC, test tube serial dilution, Streptococcus faecalis.
The subject of a further test is Proteus vulgaris. Nature of the test: MIC, test tube serial dilution, Proteus vulgaris. The conditions noted are these: strain 1017; 24 hours, 37°C.

Regarding `CC1(C)S[C@@H]2[C@H](NC(=O)[C@H](NC(=O)N3CCN(S(=O)(=O)c4ccccc4)C3=O)c3ccccc3)C(=O)N2[C@H]1C(=O)O` [Example 27, Sodium D(-)-α-[(2-oxo-3-benzenesulphonyl-1-imidazolidinyl)-carbonylamino]-benzylpenicillin], the MIC with Staphylococcus aureus is 64 U/ml; in the test on Pseudomonas aeruginosa (in µg/mL (unit assumed)), 32; against Escherichia coli (strain 183/58), 0.5 U/ml; against Escherichia coli (strain A 261), above 256 U/ml.
For `CC1(C)S[C@@H]2[C@H](NC(=O)[C@H](NC(=O)N3CCN(C(=O)c4ccco4)C3=O)c3ccccc3)C(=O)N2[C@H]1C(=O)O` [Example 13, Sodium D(-)-α-[(3-furoyl(2)-imidazolidin-2-on-1-yl)-carbonylamino]-benzylpenicillin], the MIC with Staphylococcus aureus is recorded as 128 U/ml; in the test with Pseudomonas aeruginosa (strain F 41, 24 hours, 37°C), 16 U/ml; against Pseudomonas aeruginosa (strain Walter, 24 hours, 37°C) it was 16 U/ml; against Escherichia coli (strain 183/58), below 1 U/ml; against Klebsiella-Aerobacter (in µg/mL (unit assumed)), 8; in the test with Streptococcus faecalis (ATCC 9790, 24 hours, 37°C) it was 16 U/ml.
For the molecule `CCC(=O)N1CCN(C(=O)N[C@@H](C(=O)N[C@@H]2C(=O)N3[C@@H]2SC(C)(C)[C@@H]3C(=O)O)c2ccccc2)C1=O` [Example 26, Sodium D(- )-α-[(2-oxo-3-propionyl-1-imidazolidinyl)-carbonylamino]-benzylpenicillin], the MIC in the test on Staphylococcus aureus is 64 U/ml; in the test on Pseudomonas aeruginosa (in µg/mL (unit assumed)) it was 32; in the test on Pseudomonas aeruginosa (strain Walter, 24 hours, 37°C), 64 U/ml; in the test on Escherichia coli (strain 183/58), 4 U/ml; with Escherichia coli (strain A 261), above 256 U/ml; against Klebsiella-Aerobacter (in µg/mL (unit assumed)), 32. Moreover, the MIC was 16 U/ml in the test with Klebsiella-Aerobacter (strain 63, 24 hours, 37°C) and 8 µg/mL in the test on Streptococcus faecalis (unit assumed).
Take `CC1(C)S[C@@H]2[C@H](NC(=O)[C@H](NC(=O)N3CCN(C(=O)OC4CCCCC4)C3=O)c3ccccc3)C(=O)N2[C@H]1C(=O)O` [Example 23, Sodium D(-)-α-[(3-cyclohexyloxycarbonyl-imidazolidin-2-on-1-yl)-carbonylamino]-benzylpenicillin]: the MIC with Staphylococcus aureus is 64 U/ml; against Pseudomonas aeruginosa (in µg/mL (unit assumed)) it was 32; with Pseudomonas aeruginosa (strain Bonn, 24 hours, 37°C), 16 U/ml; in the test with Escherichia coli (strain 183/58), below 1 U/ml; in the test on Klebsiella-Aerobacter (in µg/mL (unit assumed)) it was 8; against Streptococcus faecalis (unit assumed), 32 µg/mL.
On to `CCCC(=O)N1CCN(C(=O)N[C@@H](C(=O)N[C@@H]2C(=O)N3[C@@H]2SC(C)(C)[C@@H]3C(=O)O)c2ccccc2)C1=O` [Example 14, Sodium D(-)-α-[(3-n-butyryl-imidazolidin-2-on-1-yl)-carbonylamino]-benzylpenicillin], for which the MIC against Staphylococcus aureus was 128 U/ml; in the test with Pseudomonas aeruginosa (in µg/mL (unit assumed)), 32; in the test with Escherichia coli (strain 183/58), below 1 U/ml; against Streptococcus faecalis (unit assumed), 32 µg/mL.
Regarding `CC(C)(C)C(=O)N1CCN(C(=O)N[C@@H](C(=O)N[C@@H]2C(=O)N3[C@@H]2SC(C)(C)[C@@H]3C(=O)O)c2ccccc2)C1=O` [Example 21, Sodium D(-)-α-[(3-pivaloyl-imidazolidin-2-on-1-yl)-carbonylamino]-benzylpenicillin], the MIC in the test on Staphylococcus aureus is given as 256 U/ml; with Pseudomonas aeruginosa (in µg/mL (unit assumed)), 32; against Escherichia coli (strain 183/58), below 1 U/ml; against Escherichia coli (strain A 261), 256 U/ml; against Klebsiella-Aerobacter (in µg/mL (unit assumed)) it was 8; in the test with Streptococcus faecalis (ATCC 9790, 24 hours, 37°C) it was 64 U/ml.
As to `CC(C)OC(=O)N1CCN(C(=O)N[C@@H](C(=O)N[C@@H]2C(=O)N3[C@@H]2SC(C)(C)[C@@H]3C(=O)O)c2ccccc2)C1=O` [Example 7, Sodium D(-)-α-[(3-i-propyloxycarbonyl-imidazolidin-2-on-1-yl)-carbonylamino]-benzylpenicillin], the MIC is 128 U/ml against Staphylococcus aureus; 8 in the test with Pseudomonas aeruginosa (in µg/mL (unit assumed)); 16 U/ml in the test on Pseudomonas aeruginosa (strain Bonn, 24 hours, 37°C); below 1 U/ml against Escherichia coli (strain 183/58); above 256 U/ml in the test on Escherichia coli (strain A 261); 16 U/ml with Proteus vulgaris. In the test on Streptococcus faecalis (ATCC 9790, 24 hours, 37°C), this molecule showed an MIC of 16 U/ml.
